Measured values: patent US8487096B2, “Imidazo[1,2-B][1,2,4]triazines as C-MET inhibitors” (Incyte Corporation, priority 2010, dated 2013)

Target: c-Met kinase (histidine-tagged c-Met catalytic domain fusion protein) (Homo sapiens (Human), UniProt P08581)
Assay: In Vitro c-Met Kinase Enzyme Assays
Type: biochemical
Details: inhibition of c-Met kinase; phosphorylation of poly Glu-Tyr, 5 μM ATP, 25 minutes at 30° C.
Experimental: The compounds of the invention were screened in vitro for their ability to inhibit c-Met kinase activity. The IC50 values for the inhibition of c-Met kinase were determined as described in the literature with some modifications (Wang, X. et al, Mol. Cancer. Ther. 2003, 2(11):1085-1092; Calic, M. et al., Croatica Chemical ACTA. 2005, 78(3):367-374). Briefly, histidine-tagged c-Met catalytic domain fusion protein (Invitrogen, # PV3143) was used for the assay. IC50 measurements were based on the degree of phosphorylation of poly Glu-Tyr (Sigma-Aldrich, # PO275) that was coated (0.01 mg/per well) on 96-well microplates (R&D systems, # DY990). The reaction was carried out in a 50 μL solution containing 50 mM HEPES (pH 7.5), 10 mM MnCl2, 10 mM MgCl2, 0.5 mM DTT, 100 μM Na3VO4, 5 μM ATP (Cell Signaling Technology, #9804) and serial dilutions of the test compound. The reaction lasted for 25 minutes at 30° C. After the reaction was completed, the contents of the plates were discarded. Plates were then washed with TBS-T (250 μL/well, 5×) and then blocked with TBS-T containing 1% BSA for 2 hours. The contents of the plates was discarded, and 100 μL (per well) of peroxidase-labeled anti-phospho-tyrosine antibody (Sigma, # A5964) diluted (1:60,000) in 1% BSA containing TBS-T were then added and incubated for 1 hour. Plates were washed with TBS-T (250 μL/well, 5×) and followed by the color reaction using 100 μL (1:1 mixture) of H2O2 and tetramethylbenzidine (R&D Systems, # DY999). The reaction was stopped in minutes with […] of 2 N H2SO4. The optical density was measured immediately using a microplate reader at 450 nm with wavelength correction at 540 nm. IC50 values were calculated with the GraphPad Prism software. The linear range (i.e., the time period over which the rate remained equivalent to the initial rate) was determined for the kinase and IC50 determinations were performied within this range.

Sequence of c-Met kinase (histidine-tagged c-Met catalytic domain fusion protein) (P08581 1078-1345): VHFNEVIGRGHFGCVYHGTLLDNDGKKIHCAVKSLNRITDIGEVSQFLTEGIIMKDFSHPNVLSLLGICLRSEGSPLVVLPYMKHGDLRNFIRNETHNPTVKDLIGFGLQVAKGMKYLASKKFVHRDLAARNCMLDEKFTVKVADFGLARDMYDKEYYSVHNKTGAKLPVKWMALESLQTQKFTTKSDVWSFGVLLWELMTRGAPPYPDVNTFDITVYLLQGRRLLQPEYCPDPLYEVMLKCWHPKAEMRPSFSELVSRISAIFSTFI

C[C@@H](O)CNC(=O)c1ccc(-c2cnc3ncc(Cc4ccc5ncccc5c4)n3n2)cc1F [Formula I, 2-fluoro-N-[(2R)-2-hydroxypropyl]-4-[7-(quinolin-6-ylmethyl)imidazo[1,2-b][1,2,4]triazin-2-yl]benzamide]
IC50: 0.1 to 1 nM

CNC(=O)c1ccc(-c2cnc3ncc(Cc4ccc5ncccc5c4)n3n2)cc1Cl [Formula II, 2-chloro-N-methyl-4-(7-(quinolin-6-ylmethyl)imidazo[1,2-b][1,2,4]triazin-2-yl)benzamide]
IC50: 0.1 to 1 nM

Cc1nc([C@H](C)NC(=O)c2ccc(-c3cnc4ncc(Cc5ccc6ncccc6c5)n4n3)cc2Cl)no1 [Formula III, 2-chloro-N-[(1S)-1-(5-methyl-1,2,4-oxadiazol-3-yl)ethyl]-4-[7-(quinolin-6-ylmethyl)imidazo[1,2-b][1,2,4]triazin-2-yl]benzamide]
IC50: 0.1 to 1 nM

CNC(=O)c1ccc(-c2cnc3ncc(Cc4ccc5ncccc5c4)n3n2)cn1 [Formula IV, N-methyl-5-[7-(quinolin-6-ylmethyl)imidazo[1,2-b][1,2,4]triazin-2-yl]pyridine-2-carboxamide]
IC50: 0.1 to 1 nM

CNC(=O)c1ccc(-c2cnc3ncc(Cc4ccc5ncccc5c4)n3n2)cc1C [Formula V, N,2-dimethyl-4-[7-(quinolin-6-ylmethyl)imidazo[1,2-b][1,2,4]triazin-2-yl]benzamide]
IC50: 0.1 to 1 nM
